Read-outs that look alike come from different tables or passages of the source. Where a SMILES comes first, the peptide text is derived from it.
Assays:
Assay type in all cases: binding
GABARAP WT = GABARAP WT (Homo sapiens, UniProt O95166); assay: ITC of ER-phagy receptor peptides with GABARAP; settings: 25 °C, 0.5 mM peptide in syringe, ± fitting error; for N (site), stoichiometry of binding: GABARAP WT in cell
Description: (§1) All plasmids for expression of recombinant proteins and peptides in bacteria were based on a pGEX6P-1 vector (GE Healthcare). Construction of pGEX6P-ScAtg8 (1-116) K26P and pGEX6P-rat LC3B (1-120) was previously described[35],[47]. All mutations were generated by PCR-based mutagenesis. The genes were amplified by PCR and inserted downstream of the HRV 3C protease recognition site by NEBuilder HiFi DNA Assembly Master Mix (New England Biolabs) except for that encoding human GABARAP (1-116), which was inserted using restriction enzymes for the NdeI and BamHI sites. Plasmids for expression of fusion proteins for crystallization were constructed by inserting the genes encoding Atg40^237–252, human FAM134B^450–468, human SEC62^361–376 with the T367D mutation, and human RTN3^245–264 isoform e into upstream of the sequence encoding Atg8 K26P of pGEX6P-Atg8 (the K26P mutation was introduced for stabilizing Atg8) or upstream of the sequence encoding GABARAP of pGEX6P-GABARAP (with the F3S V4T mutations for enhancing crystallization). For phase-separation experiments, the mCherry and BNDL1[25],[26] sequences were inserted into upstream and downstream of the ATG8 gene in pGEX6P-Atg8 K26P, respectively. pGEX-SNAP-40C was constructed by the removal of the HRV 3C protease recognition site and the insertion of the SNAP sequence from pSNAP-tag(T7) vector (New England Biolabs) with a linker (Gly–Gly–Gly–Ser–Gly–Gly–Gly) and Atg40^194–256 following a linker (Ser–Ala–Ser–Ser) to upstream and downstream of GST in pGEX6P-1 vector, respectively. In the construction of plasmids for peptide production, a Tyr residue was attached to their C termini for enabling the quantification by absorbance at 280 nm (Supplementary Table 4).
(§2) Some of peptides (Supplementary Table 4) and all proteins except Atg40-6His were expressed in E. coli BL21 (DE3). Bacteria were cultured at 37 °C until OD600 became 0.8–1.0 and further cultured at 16 °C with 100 μM IPTG overnight. After centrifugation, the pellets were resuspended with 20 ml PBS with 0.5 mM EDTA and lysed by sonication for 10 min. […]

LC3B WT = LC3B WT (Rattus norvegicus, UniProt Q62625); assay: ITC of peptides with LC3B; settings: 25 °C, 0.5 mM peptide in syringe, LC3B WT in cell 10 times lower, single-site model, ± fitting error
Description: as §1, §2

LC3A WT = LC3A WT (Homo sapiens, UniProt Q9H492); assay: ITC of peptides with LC3A; settings: 25 °C, 0.5 mM peptide in syringe, LC3A WT in cell 10 times lower, single-site model, ± fitting error
Procedure: (§3) Some of peptides (Supplementary Table 4) and all proteins except Atg40-6His were expressed in E. coli BL21 (DE3). Bacteria were cultured at 37 °C until OD600 became 0.8–1.0 and further cultured at 16 °C with 100 μM IPTG overnight. After centrifugation, the pellets were resuspended with 20 ml PBS with 0.5 mM EDTA and lysed by sonication for 10 min. After centrifugation, the supernatants were incubated with GST-accept resin (Nacalai tesque). After three times wash by PBS, the proteins were eluted with glutathione buffer (10 mM glutathione and 50 mM Tris pH 8.0). The buffer of the eluates was exchanged with PBS by a Bio-Scale Mini BioGel P-6 desalting column (Bio-Rad). After incubation with GST-fused HRV 3 C protease at 4 °C overnight, the samples were subjected to a GST-accept resin column to remove excised GST and the protease. RTN3^245–264-GABARAP was purified by cation-exchange chromatography using CM Sepharose FF column (GE Healthcare) with 500 mM MES pH 6.0 as buffer B and 50 mM MES pH 6.0 and 1 M NaCl as buffer C. The samples were further subjected to size-exclusion chromatography with 20 mM HEPES pH 6.8, 150 mM sodium chloride except for mCherry-Atg8-CC^tetramer (20 mM HEPES pH 6.8, 500 mM sodium chloride) using a Superdex 75 10/300 or Superdex 200 26/60 column. As described in Supplementary Table 4, the Atg40^237–252 M245A and Atg40^237–252 D243A D247A peptides were synthesized by Cosmo Bio, and the FAM134B^453–460 and SEC62^361–368 peptides were synthesized by BEX Co., Ltd. The Atg40^234–252 peptide and its variants were prepared using Liberty Blue peptide synthesizer (CEM Corporation). After dissolving these synthesized peptides in 300 μl water with ~10 μl ammonium hydroxide, they were subjected to size-exclusion chromatography with 20 mM HEPES pH 6.8 containing 150 mM sodium chloride using a Superdex 75 10/300 column.
Peptides used in ITC are listed in Supplementary Table 4. ITC experiments were performed using Microcal iTC200 calorimeter (Malvern Panalytical), with stirring at 1000 rpm at 25 °C. […]

LC3C WT = LC3C WT (Homo sapiens, UniProt Q9BXW4); assay: ITC of peptides with LC3C; settings: 25 °C, 0.5 mM peptide in syringe, LC3C WT in cell 10 times lower, single-site model, ± fitting error
Procedure: as §3
Peptides used in ITC are listed in Supplementary Table 4. ITC experiments were performed using Microcal iTC200 calorimeter (Malvern Panalytical), with stirring at 1000 rpm at 25 °C. Atg40, FAM134B, SEC62, and RTN3 peptides were prepared as injection samples from the syringe. Concentrations of FAM134B, SEC62, and RTN3 peptides were 0.5 mM, whereas those of Atg40^234–252 and Atg40^237–252 peptides were 2.0 and 1.8 mM, respectively. In total, 200 μl Atg8, LC3A, LC3B, LC3C, GABARAP, GABARAPL1, and GABARAPL2 with 10 times lower concentration than the syringe samples were filled in the cell. As an exception, 1.8 mM Atg8 was filled in the cell when 1.8 mM Atg40^237–252 D243A D247A was in a syringe. The titration involved 18 injections of 2 μl of the syringe sample at intervals of 120 s into a cell after one injection of 0.4 μl of syringe sample. […]

GABARAP WT, sequence (O95166 1-116): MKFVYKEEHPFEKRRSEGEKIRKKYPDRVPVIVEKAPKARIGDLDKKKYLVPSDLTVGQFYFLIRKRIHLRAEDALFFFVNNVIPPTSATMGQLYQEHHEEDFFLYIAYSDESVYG
LC3C WT, sequence (Q9BXW4 whole entry): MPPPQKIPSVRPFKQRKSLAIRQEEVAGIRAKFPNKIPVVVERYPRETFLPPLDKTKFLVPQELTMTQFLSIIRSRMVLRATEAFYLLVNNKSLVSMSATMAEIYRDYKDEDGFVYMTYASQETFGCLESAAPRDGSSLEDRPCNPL

Which results are given for `CC[C@H](C)[C@H](NC(=O)[C@H](CCC(N)=O)NC(=O)[C@H](CC(=O)O)NC(=O)[C@H](CC(C)C)NC(=O)[C@H](CCC(=O)O)NC(=O)[C@H](CO)NC(=O)[C@H](CCC(N)=O)NC(=O)[C@H](CC(=O)O)NC(=O)[C@H](C)NC(=O)[C@H](CC(C)C)NC(=O)[C@H](CCC(=O)O)NC(=O)[C@H](Cc1ccccc1)NC(=O)[C@H](CC(=O)O)NC(=O)[C@H](CC(=O)O)NC(=O)CNC(=O)[C@H](CCC(=O)O)NC(=O)[C@H](CCC(=O)O)NC(=O)[C@@H](NC(=O)[C@H](CC(=O)O)NC(=O)[C@@H](NC(=O)[C@H](CC(=O)O)NC(=O)[C@H](CCC(=O)O)NC(=O)[C@H](CCC(=O)O)NC(=O)[C@@H]1CCCN1C(=O)CN)[C@@H](C)O)[C@@H](C)O)C(=O)N[C@@H](CCC(=O)O)C(=O)N[C@@H](CO)C(=O)N[C@@H](CCC(=O)O)C(=O)N[C@@H](CC(C)C)C(=O)N[C@@H](Cc1ccc(O)cc1)C(=O)O` [FAM134B444-470 L458A] (H-GPEEDTDTEEGDDFELADQSELDQIESELY-OH)?
N (site), stoichiometry of binding (GABARAP WT): 0.99 ± 0.03; Kd (GABARAP WT; 20 mM HEPES pH 6.8, 150 mM NaCl, GABARAP WT in cell 10 times lower, single-site model): 2.06 ± 0.61 µM

How did the Kd (LC3B WT) turn out when `CC[C@H](C)[C@H](NC(=O)[C@H](CCC(N)=O)NC(=O)[C@H](CC(=O)O)NC(=O)[C@H](CC(C)C)NC(=O)[C@H](C)NC(=O)[C@H](CO)NC(=O)[C@H](CCC(N)=O)NC(=O)[C@H](CC(=O)O)NC(=O)[C@H](CC(C)C)NC(=O)[C@H](CC(C)C)NC(=O)[C@H](C)NC(=O)[C@H](Cc1ccccc1)NC(=O)[C@H](CC(=O)O)NC(=O)[C@H](CC(=O)O)NC(=O)CNC(=O)[C@H](CCC(=O)O)NC(=O)[C@H](CCC(=O)O)NC(=O)[C@@H](NC(=O)[C@H](CC(=O)O)NC(=O)[C@@H](NC(=O)[C@H](CC(=O)O)NC(=O)[C@H](CCC(=O)O)NC(=O)[C@H](CCC(=O)O)NC(=O)[C@@H]1CCCN1C(=O)CN)[C@@H](C)O)[C@@H](C)O)C(=O)N[C@@H](CCC(=O)O)C(=O)N[C@@H](CO)C(=O)N[C@@H](CCC(=O)O)C(=O)N[C@@H](CC(C)C)C(=O)N[C@@H](Cc1ccc(O)cc1)C(=O)O` [FAM134B^444-470 E456A E462A] (H-GPEEDTDTEEGDDFALLDQSALDQIESELY-OH) was run?
Its Kd is 8.2 ± 2.46 µM.

`CC[C@H](C)[C@H](NC(=O)[C@@H](NC(=O)[C@H](CCC(=O)O)NC(=O)[C@H](Cc1ccccc1)NC(=O)[C@@H]1CCCN1C(=O)[C@H](CO)NC(=O)[C@H](CCC(=O)O)NC(=O)[C@@H](N)Cc1ccc(O)cc1)C(C)C)C(=O)N[C@H](C(=O)N[C@@H](CC(=O)O)C(=O)O)[C@@H](C)CC` [RTN3245-253 WT (∆helix)] (H-YESPFEVIID-OH) was tested. Which Kd (LC3A WT) did it give?
The Kd was 21.7 ± 3.62 µM.

With `CC[C@H](C)[C@H](NC(=O)[C@@H](NC(=O)[C@H](CCC(=O)O)NC(=O)[C@H](Cc1ccccc1)NC(=O)[C@@H]1CCCN1C(=O)[C@H](CO)NC(=O)[C@@H](N)CCC(=O)O)C(C)C)C(=O)N[C@H](C(=O)N[C@@H](CC(=O)O)C(=O)N[C@@H](CCCCN)C(=O)N[C@@H](C)C(=O)N[C@@H](C)C(=O)N[C@@H](Cc1ccccc1)C(=O)N[C@@H](CC(=O)O)C(=O)N[C@@H](CCCCN)C(=O)N[C@@H](CCC(=O)O)C(=O)N[C@@H](Cc1ccccc1)C(=O)N[C@@H](CCCCN)C(=O)N[C@@H](CC(=O)O)C(=O)N[C@@H](CO)C(=O)N[C@@H](Cc1ccc(O)cc1)C(=O)O)[C@@H](C)CC` [RTN3245-264 WT] (H-ESPFEVIIDKAAFDKEFKDSY-OH) as the molecule, how does the Kd (LC3C WT) read?
The Kd was “not detected”.

With `CC[C@H](C)[C@H](NC(=O)[C@H](CCSC)NC(=O)[C@H](CCC(=O)O)NC(=O)[C@H](Cc1ccccc1)NC(=O)[C@H](CC(=O)O)NC(=O)[C@@H](N)CC(N)=O)C(=O)N[C@H](C(=O)N[C@@H](CCCCN)C(=O)N[C@@H](Cc1ccc(O)cc1)C(=O)O)[C@@H](C)O` [SEC62^361-368 (Δhelix)] (H-NDFEMITKY-OH) as the molecule, how does the Kd (LC3C WT; read-out: Kd) read?
The Kd was 31.9 ± 13.2 µM.

For `CSCC[C@H](NC(=O)[C@H](CCC(=O)O)NC(=O)[C@H](Cc1ccccc1)NC(=O)[C@H](CC(=O)O)NC(=O)[C@H](CC(N)=O)NC(=O)CNC(=O)[C@H](CC(N)=O)NC(=O)CNC(=O)[C@H](CO)NC(=O)[C@H](CO)NC(=O)[C@H](Cc1c[nH]cn1)NC(=O)[C@@H]1CCCN1C(=O)CN)C(=O)N[C@@H](C)C(=O)N[C@H](C(=O)N[C@@H](CCCCN)C(=O)N[C@@H](CCC(=O)O)C(=O)N[C@@H](CCC(=O)O)C(=O)N[C@@H](CC(C)C)C(=O)N[C@@H](CCC(=O)O)C(=O)N[C@@H](CCC(N)=O)C(=O)N[C@@H](CCC(N)=O)C(=O)N[C@H](C(=O)N[C@@H](CC(=O)O)C(=O)N[C@@H](Cc1ccc(O)cc1)C(=O)O)[C@@H](C)O)[C@@H](C)O` [SEC62355-376 I366A] (H-GPHSSGNGNDFEMATKEELEQQTDY-OH), which “N (site), stoichiometry of binding” value (GABARAP WT) is on record?
The value was 0.87 ± 0.10.
